One block for each compound: values may come before it.
Key:
Type in all cases: functional
[1] = test system: Panel leukemia (Carcinoma cell lines); assay: cells; settings: Homo sapiens, time 48 hrs
Description: Growth inhibition of human Panel leukemia (Carcinoma cell lines) incubated for 48 hrs by sulforhodamine B assay

HT-29 = assay: cells; settings: Homo sapiens, time 48 hrs
Description: Growth inhibition of human HT-29 cells incubated for 48 hrs by sulforhodamine B assay

A498 = assay: cells; settings: Homo sapiens, time 48 hrs
Description: Growth inhibition of human A498 cells incubated for 48 hrs by sulforhodamine B assay

[2] = test system: Panel colon (Carcinoma cell lines); assay: cells; settings: Homo sapiens, time 48 hrs
Description: Growth inhibition of human Panel colon (Carcinoma cell lines) incubated for 48 hrs by sulforhodamine B assay

[3] = test system: Panel NCI-60 (60 carcinoma cell lines); assay: cells; settings: Homo sapiens, time 48 hrs
Description: Growth inhibition of human Panel NCI-60 (60 carcinoma cell lines) incubated for 48 hrs by sulforhodamine B assay

Hs-578T = assay: cells; settings: Homo sapiens, time 48 hrs
Description: Growth inhibition of human Hs-578T cells incubated for 48 hrs by sulforhodamine B assay

NCI-H522 = assay: cells; settings: Homo sapiens, time 48 hrs
Description: Growth inhibition of human NCI-H522 cells incubated for 48 hrs by sulforhodamine B assay

[4] = test system: Panel breast (Carcinoma cell lines); assay: cells; settings: Homo sapiens, time 48 hrs
Description: Growth inhibition of human Panel breast (Carcinoma cell lines) incubated for 48 hrs by sulforhodamine B assay

SK-MEL-28 = assay: cells; settings: Homo sapiens, time 48 hrs
Description: Growth inhibition of human SK-MEL-28 cells incubated for 48 hrs by sulforhodamine B assay

KM12 = assay: cells; settings: Homo sapiens, time 48 hrs
Description: Growth inhibition of human KM12 cells incubated for 48 hrs by sulforhodamine B assay

K562 = assay: cells; settings: Homo sapiens, time 48 hrs
Description: Growth inhibition of human K562 cells incubated for 48 hrs by sulforhodamine B assay

[5] = test system: Panel prostate (Carcinoma cell lines); assay: cells; settings: Homo sapiens, time 48 hrs
Description: Growth inhibition of human Panel prostate (Carcinoma cell lines) incubated for 48 hrs by sulforhodamine B assay

SF-295 = assay: cells; settings: Homo sapiens, time 48 hrs
Description: Growth inhibition of human SF-295 cells incubated for 48 hrs by sulforhodamine B assay

[6] = test system: Panel melanoma (Carcinoma cell lines); assay: cells; settings: Homo sapiens, time 48 hrs
Description: Growth inhibition of human Panel melanoma (Carcinoma cell lines) incubated for 48 hrs by sulforhodamine B assay

IGROV-1 = assay: cells; settings: Homo sapiens, time 48 hrs
Description: Growth inhibition of human IGROV-1 cells incubated for 48 hrs by sulforhodamine B assay

OVCAR-4 = assay: cells; settings: Homo sapiens, time 48 hrs
Description: Growth inhibition of human OVCAR-4 cells incubated for 48 hrs by sulforhodamine B assay

A549 = assay: cells; settings: Homo sapiens, time 48 hrs
Description: Growth inhibition of human A549/ATCC cells incubated for 48 hrs by sulforhodamine B assay

HCT-15 = assay: cells; settings: Homo sapiens, time 48 hrs
Description: Growth inhibition of human HCT-15 cells incubated for 48 hrs by sulforhodamine B assay

OVCAR-8 = assay: cells; settings: Homo sapiens, time 48 hrs
Description: Growth inhibition of human OVCAR-8 cells incubated for 48 hrs by sulforhodamine B assay

NCI-H226 = assay: cells; settings: Homo sapiens, time 48 hrs
Description: Growth inhibition of human NCI-H226 cells incubated for 48 hrs by sulforhodamine B assay

NCI-H23 = assay: cells; settings: Homo sapiens, time 48 hrs
Description: Growth inhibition of human NCI-H23 cells incubated for 48 hrs by sulforhodamine B assay

[7] = test system: Panel ovarian (Carcinoma cell lines); assay: cells; settings: Homo sapiens, time 48 hrs
Description: Growth inhibition of human Panel ovarian (Carcinoma cell lines) incubated for 48 hrs by sulforhodamine B assay

MCF7 = assay: cells; settings: Homo sapiens, time 48 hrs
Description: Growth inhibition of human MCF7 cells incubated for 48 hrs by sulforhodamine B assay

[8] = test system: Panel renal (Carcinoma cell lines); assay: cells; settings: Homo sapiens, time 48 hrs
Description: Growth inhibition of human Panel renal (Carcinoma cell lines) incubated for 48 hrs by sulforhodamine B assay

NCI-H460 = assay: cells; settings: Homo sapiens, time 48 hrs
Description: Growth inhibition of human NCI-H460 cells incubated for 48 hrs by sulforhodamine B assay

U-251 = assay: cells; settings: Homo sapiens, time 48 hrs
Description: Growth inhibition of human U-251 cells incubated for 48 hrs by sulforhodamine B assay

[9] = test system: Panel CNS (Carcinoma cell lines); assay: cells; settings: Homo sapiens, time 48 hrs
Description: Growth inhibition of human Panel CNS (Carcinoma cell lines) incubated for 48 hrs by sulforhodamine B assay

MDA-MB-468 = assay: cells; settings: Homo sapiens, time 48 hrs
Description: Growth inhibition of human MDA-MB-468 cells incubated for 48 hrs by sulforhodamine B assay

NCI-H322M = assay: cells; settings: Homo sapiens, time 48 hrs
Description: Growth inhibition of human NCI-H322M cells incubated for 48 hrs by sulforhodamine B assay

LOX IMVI = assay: cells; settings: Homo sapiens, time 48 hrs
Description: Growth inhibition of human LOX IMVI cells incubated for 48 hrs by sulforhodamine B assay

RXF 393 = assay: cells; settings: Homo sapiens, time 48 hrs
Description: Growth inhibition of human RXF 393 cells incubated for 48 hrs by sulforhodamine B assay

MDA-MB-231 = assay: cells; settings: Homo sapiens, time 48 hrs
Description: Growth inhibition of human MDA-MB-231/ATCC cells incubated for 48 hrs by sulforhodamine B assay

HOP-62 = assay: cells; settings: Homo sapiens, time 48 hrs
Description: Growth inhibition of human HOP-62 cells incubated for 48 hrs by sulforhodamine B assay

PC-3 = assay: cells; settings: Homo sapiens, time 48 hrs
Description: Growth inhibition of human PC-3 cells incubated for 48 hrs by sulforhodamine B assay

OVCAR-3 = assay: cells; settings: Homo sapiens, time 48 hrs
Description: Growth inhibition of human OVCAR-3 cells incubated for 48 hrs by sulforhodamine B assay

UO-31 = assay: cells; settings: Homo sapiens, time 48 hrs
Description: Growth inhibition of human UO-31 cells incubated for 48 hrs by sulforhodamine B assay

UACC-257 = assay: cells; settings: Homo sapiens, time 48 hrs
Description: Growth inhibition of human UACC-257 cells incubated for 48 hrs by sulforhodamine B assay

HCT-116 = assay: cells; settings: Homo sapiens, time 48 hrs
Description: Growth inhibition of human HCT-116 cells incubated for 48 hrs by sulforhodamine B assay

UACC-62 = assay: cells; settings: Homo sapiens, time 48 hrs
Description: Growth inhibition of human UACC-62 cells incubated for 48 hrs by sulforhodamine B assay

HOP-92 = assay: cells; settings: Homo sapiens, time 48 hrs
Description: Growth inhibition of human HOP-92 cells incubated for 48 hrs by sulforhodamine B assay

cells = settings: Homo sapiens, Non-small cell lung cancer cell line; time 48 hrs
Description: Growth inhibition of human Non-small cell lung cancer cell line incubated for 48 hrs by sulforhodamine B assay

TK-10 = assay: cells; settings: Homo sapiens, time 48 hrs
Description: Growth inhibition of human TK-10 cells incubated for 48 hrs by sulforhodamine B assay

CCRF-CEM = assay: cells; settings: Homo sapiens, time 48 hrs
Description: Growth inhibition of human CCRF-CEM cells incubated for 48 hrs by sulforhodamine B assay

M14 = assay: Growth inhibition of human M14 cells assessed as growth percentage at 10 uM measured after 48 hrs by sulforhodamine B assay relative to control; settings: read-out: Activity
[10] = read-out: LC50 (the source's name)

GI50 [1]: 3.54 µM
Compound: COc1cc2ncnc(Nc3ccc(F)c(Cl)c3)c2cc1OCCCN1CCOCC1 [GEFITINIB]

Compound: CN1CCN(CCCOc2cccc3nc(Nc4ccc(Cl)c(F)c4)ccc23)CC1
GI50 (HT-29): 1.41 µM
GI50 (A498): 2.39 µM
GI50 [2]: 1.62 µM
TGI [2]: 3.17 µM
CC50 [2, 10]: 6.21 µM
GI50 [3]: 1.82 µM
TGI [3]: 3.89 µM
CC50 [3, 10]: 9.12 µM
GI50 (Hs-578T): 2.12 µM
GI50 (NCI-H522): 1.75 µM
GI50 [4]: 1.84 µM
TGI [4]: 4.5 µM
CC50 [4, 10]: 13.2 µM
GI50 (SK-MEL-28): 1.72 µM
GI50 (KM12): 1.77 µM
GI50 (K562): 1.47 µM
GI50 [5]: 1.76 µM
LC50 (concentration killing 50% of cells) [5]: 6.21 µM
TGI [5]: 2.8 µM
GI50 (SF-295): 1.79 µM
GI50 [6]: 1.82 µM
LC50 [6]: 6.77 µM
TGI [6]: 3.5 µM
GI50 (IGROV-1): 1.95 µM
GI50 (OVCAR-4): 3.13 µM
GI50 (A549): 1.96 µM
GI50 (HCT-15): 1.4 µM
GI50 (OVCAR-8): 2.02 µM
GI50 [1]: 1.9 µM
LC50 (50% lethal concentration) [1]: 53.9 µM
TGI [1]: 4.28 µM
GI50 (NCI-H226): 2.05 µM
GI50 (NCI-H23): 1.75 µM
GI50 [7]: 1.99 µM
LC50 [7]: 11.3 µM
TGI [7]: 4.87 µM
GI50 (MCF7): 1.31 µM
GI50 [8]: 2.22 µM
LC50 (lethal concentration 50%) [8]: 19.8 µM
TGI [8]: 6.21 µM
GI50 (NCI-H460): 1.91 µM
GI50 (U-251): 1.81 µM
GI50 [9]: 1.74 µM
TGI [9]: 3.35 µM
CC50 [9, 10]: 6.46 µM
GI50 (MDA-MB-468): 1.72 µM
GI50 (NCI-H322M): 1.7 µM
GI50 (LOX IMVI): 1.64 µM
GI50 (RXF 393): 1.96 µM
GI50 (MDA-MB-231): 1.68 µM
GI50 (HOP-62): 1.45 µM
GI50 (PC-3): 1.76 µM
GI50 (OVCAR-3): 1.7 µM
GI50 (UO-31): 1.57 µM
GI50 (UACC-257): 2.04 µM
GI50 (HCT-116): 1.56 µM
GI50 (UACC-62): 2.05 µM
GI50 (HOP-92): 1.33 µM
GI50 (cells): 1.75 µM
LC50 (50% lethal concentration) (cells): 9.98 µM
TGI (cells): 3.88 µM
GI50 (TK-10): 1.81 µM

GI50 (HT-29): 1.76 µM
GI50 [2]: 1.83 µM
GI50 (NCI-H522): 1.82 µM
GI50 [4]: 3.33 µM
GI50 (SK-MEL-28): 1.65 µM
GI50 (K562): 2.21 µM
GI50 [5]: 2.49 µM
GI50 [6]: 3.02 µM
GI50 (OVCAR-4): 10.3 µM
GI50 (A549): 2.6 µM
GI50 (HCT-15): 1.75 µM
GI50 (OVCAR-8): 3.54 µM
GI50 [1]: 2.35 µM
GI50 (NCI-H226): 3.16 µM
GI50 (NCI-H23): 2.94 µM
GI50 [7]: 4.02 µM
GI50 (CCRF-CEM): 2.36 µM
GI50 (MCF7): 1.74 µM
GI50 [8]: 3.96 µM
GI50 (NCI-H460): 2.43 µM
GI50 (U-251): 1.98 µM
GI50 [9]: 2.18 µM
GI50 (MDA-MB-468): 2.08 µM
GI50 (NCI-H322M): 2.51 µM
GI50 (MDA-MB-231): 1.8 µM
GI50 (PC-3): 1.94 µM
GI50 (OVCAR-3): 2.92 µM
GI50 (HCT-116): 1.82 µM
Compound: Clc1cc(Cl)cc(Nc2ccc3c(OCCCN4CCOCC4)cccc3n2)c1
GI50 (A498): 2.39 µM
GI50 [3]: 2.57 µM
GI50 (Hs-578T): 2.51 µM
GI50 (KM12): 2 µM
GI50 (SF-295): 1.92 µM
GI50 (IGROV-1): 3.9 µM
GI50 (LOX IMVI): 1.72 µM
GI50 (RXF 393): 2.26 µM
GI50 (HOP-62): 2.29 µM
GI50 (UO-31): 1.51 µM
GI50 (UACC-257): 2.05 µM
GI50 (UACC-62): 2.01 µM
GI50 (HOP-92): 2.03 µM
GI50 (cells): 2.53 µM
GI50 (TK-10): 2.38 µM

Compound: CC(C)c1ccc(Nc2ccc3c(OCCCN4CCOCC4)cccc3n2)cc1
growth at 10 µM (M14): 59.8%

Source: ChEMBL document CHEMBL4715724, “Novel 5-substituted-2-anilinoquinolines with 3-(morpholino or 4-methylpiperazin-1-yl)propoxy moiety as broad spectrum antiproliferative agents: Synthesis, cell based assays and kinase screening” (Bioorg Med Chem Lett, 2016)
